Experimental data taken from patent publication US20080287525A1, “Pharmaceuticals for treating or preventing oral diseases” (HAWLEY & HAZEL (BVI) COMPANY LIMITED, priority 2007, published 2008).

Columns and labels:
[1] = tested on: Actinobacilus actinomycetemcomitans (A. a) ATCC 43717; assay: Micro-dilution MIC test, A. a; assay type: cell-based; conditions: 37 °C, 18-24 h, unit not given, method gives concentrations in mg/L (ppm)
Experimental: (§1) A single colony was picked from the Trypticase Digested Soybean peptone agar blood plate (TSA5B) of ordinarily stored bacteria species and used to inoculate corresponding broth culture medium, which was cultivated in a microaerobic environment (P.g needs anaerobic cultivation) with 95% air, 5% CO2 at 37.0° C.±1.0° C., wherein S.m and S.sa were cultivated for 18-24 h, and the remaining five species were cultivated for 40-48 h. Then corresponding broth cultivate medium was used to adjust the turbidity of the bacteria suspension to 0.5 McFarland standard, equivalent to 1.0×10^8 CFU/mL.
(§2) The operating steps were:
(§3) a. Preparation of the stock solution of antibacterial pharmaceutical: 1% stock solution of various antibacterial pharmaceuticals was prepared with 100% pure ethanol as solvent. The prepared stock solution was filtered to eliminate bacteria, and was distributed into small portions to be used.
(§4) b. Range of measured concentration: the present experiment used 250 ppm as the ceiling measured concentration of the anti-bacterial pharmaceutical.
(§5) c. Measuring method: micro-dilution method. […]
(§6) The bacteria to be tested and standard bacteria were prepared using the same method as above. […] 0.12 mg/L, and the final inoculation quantity was about […] or 5×10^6 bacteria in each well. […]

[2] = tested on: Streptococcus mutans (S. m) ATCC 25175; assay: Micro-dilution MIC test, S. m; assay type: cell-based; conditions: 37 °C, 18-24 h, unit not given, method gives concentrations in mg/L (ppm)
Experimental: as §1, §2, §3, §4, §5, §6

GM-CSF = assay: Anti-inflammatory test in KB cells, LUMINEX, GM-CSF; assay type: cell-based, human; conditions: KB cell supernatant, the larger the value, the stronger the anti-inflammatory ability
Experimental: (§7) Anti-inflammatory activity was assessed using the KB cell (the epidermis cancer cell in human oral cavity). During the experiment, the KB cell inoculated in the cultivating plate was treated with or without positive control or Mulberrofuran G. After the treatment, the supernatant of the cultivating medium was collected and stored in −80° C. refrigerator. Inflammation was assessed by measuring several inflammation markers: Prostaglandin E2 (PGE2) in the supernatant was detected by Enzyme-linked immunsorbent assay, and LUMINEX™ multifunctional liquid-phase chip analysis system was used for the detection of granulocyte monocyte colony stimulating factor (GM-CSF), tumor necrosis factor-alpha (TNF-α), and interleukins 1-beta and 6 ([…] and IL-6).
(§8) LUMINEX™ multifunctional liquid-phase chip analyses of GM-CSF, TNF-α, IL-1 and IL-6: The 96-well plate was enclosed with enclosing liquid for 30 minutes. Fluorescent microspheres were added into the 96-well plate after dilution. The standard and the samples to be measured were added, and incubated overnight at 4° C. The next day, the supernatant was discarded and 50 μL GM-CSF, TNF-α, IL-1β and IL-6 antibodies were added to each well. After being rinsed for 4 times, the 96-well plate was placed in a shaking table, which was in ambient temperature, to keep the plate away from light for one hour. […]

IL-1β = assay: Anti-inflammatory test in KB cells, LUMINEX, IL-1β; assay type: cell-based, human; conditions: KB cell supernatant, the larger the value, the stronger the anti-inflammatory ability
Experimental: as §7, §8

[3] = tested on: Actinomyces viscosus (A. v) ATCC 27044; assay: Micro-dilution MIC test, A. v; assay type: cell-based; conditions: 37 °C, 18-24 h, unit not given, method gives concentrations in mg/L (ppm)
Experimental: as §1, §2, §3, §4, §5, §6

[4] = tested on: Fusobacterium nucleatum subsp. Polymorphum (F. n) ATCC 10953; assay: Micro-dilution MIC test, F. n; assay type: cell-based; conditions: 37 °C, 18-24 h, unit not given, method gives concentrations in mg/L (ppm)
Experimental: as §1, §2, §3, §4, §5, §6

IL-6 = assay: Anti-inflammatory test in KB cells, LUMINEX, IL-6; assay type: cell-based, human; conditions: KB cell supernatant, the larger the value, the stronger the anti-inflammatory ability
Experimental: as §7, §8

TNF-α = assay: Anti-inflammatory test in KB cells, LUMINEX, TNF-α; assay type: cell-based, human; conditions: KB cell supernatant, the larger the value, the stronger the anti-inflammatory ability
Experimental: as §7, §8

[5] = tested on: Actinomyces naeslundii (A. n) ATCC 12104; assay: Micro-dilution MIC test, A. n; assay type: cell-based; conditions: 37 °C, 18-24 h, unit not given, method gives concentrations in mg/L (ppm)
Experimental: as §1, §2, §3, §4, §5, §6

[6] = tested on: Porphyromonas gingivalis (P. g) ATCC 33277; assay: Micro-dilution MIC test, P. g; assay type: cell-based; conditions: anaerobic, 37 °C, 18-24 h, unit not given, method gives concentrations in mg/L (ppm)
Experimental: as §1, §2, §3, §4, §5, §6

[7] = tested on: Streptococcus sanguis (S. sa) ATCC 10556; assay: Micro-dilution MIC test, S. sa; assay type: cell-based; conditions: 37 °C, 18-24 h, unit not given, method gives concentrations in mg/L (ppm)
Experimental: as §1, §2, §3, §4, §5, §6

| MIC, A. a ATCC 43717 [1] | MIC, S. m ATCC 25175 [2] | MIC, A. v ATCC 27044 [3] | MIC, F. n ATCC 10953 [4] | MIC, A. n ATCC 12104 [5] | MIC, P. g ATCC 33277 [6] | MIC, S. sa ATCC 10556 [7] | SMILES | anti-inflammatory effect, GM-CSF (GM-CSF) [%] | anti-inflammatory effect, IL-1β (IL-1β) [%] | anti-inflammatory effect, IL-6 (IL-6) [%] | anti-inflammatory effect, TNF-α (TNF-α) [%] |
| --- | --- | --- | --- | --- | --- | --- | --- | --- | --- | --- | --- |
| 2.4 | 3.9 | 2.4 | 7.8 | 1.9 | 1.9 | 7.8 | CC1=C[C@H]2c3c(O)cc(-c4cc5ccc(O)cc5o4)cc3O[C@@]3(c4ccc(O)cc4O)Oc4cc(O)ccc4[C@H](C1)[C@@H]23 [Mulberrofuran G, 3aH-Benzo[3,4][2]benzopyrano[1,8-bc][1]-benzopyran-4,11-diol, 8a-(2,4-dihydroxphenyl)-1,8a,13b,13c-tetrahydro-6-(6-hydroxy-2-benzofuranyl)-2-methyl-, (3a,S,8aS,13bS,13cR)-] | 8 | 18 | 48 | 90 |
| – | – | – | – | – | – | – | Oc1cc(Cl)ccc1Oc1ccc(Cl)cc1Cl [Triclosan, reference compound] | – | 7 | 31 | 81 |
